Test results reported in patent US20240384350A1, “METHODS OF TREATING CANCER WITH KINASE INHIBITORS” (BOARD OF REGENTS, THE UNIVERSITY OF TEXAS SYSTEM, priority 2021, published 2024).

Legend:
Experiment in all cases: Ba/F3 drug screening, Cell Titer Glo, IC50 Mut/WT
Format in all cases: cell-based
EGFR E709A G719S = biological target: T1, EGFR E709A G719S (Homo sapiens, UniProt P00533, E709A/G719S); conditions: Ba/F3 cells, EGFR E709A G719S (PACC), Mut/WT
T1 construct: expressed in transfected cells; host or cells: Ba/F3

EGFR N771dupN G724S = biological target: T2, EGFR N771dupN G724S (Homo sapiens, UniProt P00533, DUP771-771/G724S); conditions: Ex20, 72 hours
T2 construct: expressed in transfected cells; host or cells: Ba/F3 cells, retroviral pBabe-Puro vector (vector made by GeneScript from EGFR G724S, c.2313_2314insAAC)

EGFR Ex19del T790M L718V = biological target: T3, EGFR Ex19del T790M L718V (Homo sapiens, UniProt P00533, DEL746-750/L718V/T790M); conditions: T790M-like-3S, 72 hours
T3 construct: expressed in transfected cells; host or cells: Ba/F3
Description: (§1) Data represent the ratio of the IC50 value for a given TKI for cells with a T790M-like-3S EGFR mutation to the IC50 value for cells with wildtype EGFR.
(§2) Ba/F3 cell generation, drug screening, and IC50 approximations. Ba/F3 cells were obtained as a gift from Dr. Gordon Mills (MD Anderson Cancer Center), and maintained in RPMI (Sigma) containing 10% FBS, 1% penicillin/streptomycin, and 10 ng/ml recombinant mIL-3 (R&D Biosystems). To establish stable Ba/F3 cell lines, Ba/F3 cells were transduced with retroviruses containing mutant EGFR plasmids for 12-24 hours.
(§3) After 48-72 hours of transduction, 2 μg/ml puromycin (Invitrogen) was added to Ba/F3 cell lines in complete RPMI. To select for EGFR positive cell lines, cells were stained with PE-EGFR (Biolegend) and sorted by FACS. After sorting, EGFR positive cells were maintained in RPMI containing 10% FBS, 1% penicillin/streptomycin, and 1 ng/ml EGF to support cell viability. Drug screening was performed as previously described^41,42. Shortly, cells were plated in 384-well plates (Greiner Bio-One) at 2000-3000 cells per well in technical triplicate. Seven different concentrations of TKIs or DMSO vehicle were added to reach a final volume of 40 μL per well. After 72 hours, 11 μL of Cell Titer Glo (Promega) was added to each well. Plates were incubated for a minimum of 10 minutes, and bioluminescence was determined using a FLUOstar OPTIMA plate reader (BMG LABTECH). Raw bioluminescence values were normalized to DMSO control treated cells, and values were plotted in GraphPad Prism. […] Drug screens were performed in technical triplicate on each plate and either duplicate or triplicate biological replicates.

EGFR L861Q = biological target: T4, EGFR L861Q (Homo sapiens, UniProt P00533, L861Q); conditions: Classical-Like, 72 hours
T4 construct: expressed in transfected cells; host or cells: Ba/F3 cells, retroviral pBabe-Puro vector
Description: Data represent the ratio of the IC50 value for a given TKI for cells with a classical-like EGFR mutation to the IC50 value for cells with wildtype EGFR.
as §2
After 48-72 hours of transduction, 2 μg/ml puromycin (Invitrogen) was added to Ba/F3 cell lines in complete RPMI. To select for EGFR positive cell lines, cells were stained with PE-EGFR (Biolegend) and sorted by FACS. After sorting, EGFR positive cells were maintained in RPMI containing 10% FBS, 1% penicillin/streptomycin, and 1 ng/ml EGF to support cell viability. […] Shortly, cells were plated in 384-well plates (Greiner Bio-One) at 2000-3000 cells per well in technical triplicate. Seven different concentrations of TKIs or DMSO vehicle were added to reach a final volume of 40 μL per well. After 72 hours, 11 μL of Cell Titer Glo (Promega) was added to each well. Plates were incubated for a minimum of 10 minutes, and bioluminescence was determined using a FLUOstar OPTIMA plate reader (BMG LABTECH). Raw bioluminescence values were normalized to DMSO control treated cells, and values were plotted in GraphPad Prism. […] Drug screens were performed in technical triplicate on each plate and either duplicate or triplicate biological replicates.

EGFR S768I/V769L = biological target: T5, EGFR S768I/V769L (Homo sapiens, UniProt P00533, S768I/V769L); conditions: Ba/F3 cells, EGFR S768I/V769L (PACC), Mut/WT
T5 construct: host or cells: Ba/F3
Description: (§4) Data represent the ratio of the IC50 value for a given TKI for cells with a PACC EGFR mutation to the IC50 value for cells with wildtype EGFR.
as §2, §3

EGFR E709A = biological target: T6, EGFR E709A (Homo sapiens, UniProt P00533, E709A); conditions: Ba/F3 cells, EGFR E709A (PACC), Mut/WT
T6 construct: expressed in transfected cells; host or cells: Ba/F3

EGFR S768I = biological target: T7, EGFR S768I (Homo sapiens, UniProt P00533, S768I); conditions: Ba/F3 cells, EGFR S768I (PACC), Mut/WT
T7 construct: expressed in transfected cells; host or cells: Ba/F3

EGFR G719A T790M = biological target: T8, EGFR G719A T790M (Homo sapiens, UniProt P00533, G719A/T790M); conditions: T790M-like-3S, 72 hours
T8 construct: expressed in transfected cells; host or cells: Ba/F3

EGFR L858R L718Q = biological target: T9, EGFR L858R L718Q (Homo sapiens, UniProt P00533, L718Q/L858R); conditions: Ba/F3 cells, EGFR L858R L718Q (PACC), Mut/WT
T9 construct: host or cells: Ba/F3

EGFR V774M = biological target: T10, EGFR V774M (Homo sapiens, UniProt P00533, V774M); conditions: Ba/F3 cells, EGFR V774M (PACC), Mut/WT
T10 construct: host or cells: Ba/F3

EGFR L858R/T790M = biological target: T11, EGFR L858R/T790M (Homo sapiens, UniProt P00533, L858R/T790M); conditions: T790M-like-3S, 72 hours
T11 construct: expressed in transfected cells; host or cells: Ba/F3

EGFR L747P = biological target: T12, EGFR L747P (Homo sapiens, UniProt P00533, L747P); conditions: Ba/F3 cells, EGFR L747P (PACC), Mut/WT
T12 construct: expressed in transfected cells; host or cells: Ba/F3
Description: as §4, §2
(§5) After 48-72 hours of transduction, 2 μg/ml puromycin (Invitrogen) was added to Ba/F3 cell lines in complete RPMI. To select for EGFR positive cell lines, cells were stained with PE-EGFR (Biolegend) and sorted by FACS. After sorting, EGFR positive cells were maintained in RPMI containing 10% FBS, 1% penicillin/streptomycin, and 1 ng/ml EGF to support cell viability. Drug screening was performed as previously described^41,42. Shortly, cells were plated in 384-well plates (Greiner Bio-One) at 2000-3000 cells per well in technical triplicate. Seven different concentrations of TKIs or DMSO vehicle were added to reach a final volume of 40 μL per well. After 72 hours, 11 μL of Cell Titer Glo (Promega) was added to each well. Plates were incubated for a minimum of 10 minutes, and bioluminescence was determined using a FLUOstar OPTIMA plate reader (BMG LABTECH). Raw bioluminescence values were normalized to DMSO control treated cells, and values were plotted in GraphPad Prism. […] Drug screens were performed in technical triplicate on each plate and either duplicate or triplicate biological replicates. […] Statistical differences between groups were determined by ANOVA as described in the figure legends.

EGFR L858R T790M L792H = biological target: T13, EGFR L858R T790M L792H (Homo sapiens, UniProt P00533, L792H/L858R/T790M); conditions: T790M-like-3S, 72 hours
T13 construct: expressed in transfected cells; host or cells: Ba/F3

EGFR S784F = biological target: T14, EGFR S784F (Homo sapiens, UniProt P00533, S784F); conditions: Classical-Like, 72 hours
T14 construct: expressed in transfected cells; host or cells: Ba/F3 cells, retroviral pBabe-Puro vector (vector made by GeneScript from EGFR WT)

EGFR V769L = biological target: T15, EGFR V769L (Homo sapiens, UniProt P00533, V769L); conditions: Ba/F3 cells, EGFR V769L (PACC), Mut/WT
T15 construct: expressed in transfected cells; host or cells: Ba/F3
Description: as §4, §2, §3

EGFR S768I V774M = biological target: T16, EGFR S768I V774M (Homo sapiens, UniProt P00533, S768I/V774M); conditions: Ba/F3 cells, EGFR S768I V774M (PACC), Mut/WT
T16 construct: host or cells: Ba/F3

EGFR I740dupIPVAK = conditions: Ba/F3 cells, EGFR I740dupIPVAK (PACC), Mut/WT
Description: as §4, §2, §3

EGFR G719S T790M = biological target: T17, EGFR G719S T790M (Homo sapiens, UniProt P00533, G719S/T790M); conditions: T790M-like-3S, 72 hours
T17 construct: expressed in transfected cells; host or cells: Ba/F3

EGFR S768I/T790M = biological target: T18, EGFR S768I/T790M (Homo sapiens, UniProt P00533, S768I/T790M); conditions: T790M-like-3S, 72 hours
T18 construct: expressed in transfected cells; host or cells: Ba/F3

EGFR S811F = biological target: T19, EGFR S811F (Homo sapiens, UniProt P00533, S811F); conditions: Classical-Like, 72 hours
T19 construct: expressed in transfected cells; host or cells: Ba/F3 cells, retroviral pBabe-Puro vector (vector made by GeneScript from EGFR WT)

EGFR Ex19del L718Q = biological target: T20, EGFR Ex19del L718Q (Homo sapiens, UniProt P00533, DEL746-750/L718Q); conditions: Ba/F3 cells, EGFR Ex19del L718Q (PACC), Mut/WT
T20 construct: expressed in transfected cells; host or cells: Ba/F3
Description: as §4, §2, §3

EGFR R776C = biological target: T21, EGFR R776C (Homo sapiens, UniProt P00533, R776C); conditions: Ba/F3 cells, EGFR R776C (PACC), Mut/WT
T21 construct: host or cells: Ba/F3
Description: as §4, §2, §3

EGFR T790M = biological target: T22, EGFR T790M (Homo sapiens, UniProt P00533, T790M); conditions: T790M-like-3S, 72 hours
T22 construct: expressed in transfected cells; host or cells: Ba/F3
Description: as §1, §2, §3

EGFR N771dupN = biological target: T23, EGFR N771dupN (Homo sapiens, UniProt P00533, DUP771-771); conditions: Ex20, 72 hours
T23 construct: expressed in transfected cells; host or cells: Ba/F3 cells, retroviral pBabe-Puro vector
Description: Data represent the ratio of the IC50 value for a given TKI for cells with an ex20ins EGFR mutation to the IC50 value for cells with wildtype EGFR.
as §2, §5

EGFR Ex19del/T790M/L792H = biological target: T24, EGFR Ex19del/T790M/L792H (Homo sapiens, UniProt P00533, DEL746-750/L792H/T790M); conditions: T790M-like-3R, 72 hours
T24 construct: expressed in transfected cells; host or cells: Ba/F3
Description: Data represent the ratio of the IC50 value for a given TKI for cells with a T790M-like-3R EGFR mutation to the IC50 value for cells with wildtype EGFR.
as §2
After 48-72 hours of transduction, 2 μg/ml puromycin (Invitrogen) was added to Ba/F3 cell lines in complete RPMI. To select for EGFR positive cell lines, cells were stained with PE-EGFR (Biolegend) and sorted by FACS. After sorting, EGFR positive cells were maintained in RPMI containing 10% FBS, 1% penicillin/streptomycin, and 1 ng/ml EGF to support cell viability. […] Shortly, cells were plated in 384-well plates (Greiner Bio-One) at 2000-3000 cells per well in technical triplicate. Seven different concentrations of TKIs or DMSO vehicle were added to reach a final volume of 40 μL per well. After 72 hours, 11 μL of Cell Titer Glo (Promega) was added to each well. Plates were incubated for a minimum of 10 minutes, and bioluminescence was determined using a FLUOstar OPTIMA plate reader (BMG LABTECH). Raw bioluminescence values were normalized to DMSO control treated cells, and values were plotted in GraphPad Prism. […] Drug screens were performed in technical triplicate on each plate and either duplicate or triplicate biological replicates. […] Statistical differences between groups were determined by ANOVA as described in the figure legends.

EGFR G724S = biological target: T25, EGFR G724S (Homo sapiens, UniProt P00533, G724S); conditions: Ba/F3 cells, EGFR G724S (PACC), Mut/WT
T25 construct: expressed in transfected cells; host or cells: Ba/F3

EGFR L858R/L718V = biological target: T26, EGFR L858R/L718V (Homo sapiens, UniProt P00533, L718V/L858R); conditions: Ba/F3 cells, EGFR L858R/L718V (PACC), Mut/WT
T26 construct: host or cells: Ba/F3

SMILES | ratio of the IC50 value for cells with a PACC EGFR mutation to the IC50 value for cells with wildtype EGFR (EGFR E709A G719S) | ratio of IC50 for cells with mutant EGFR to IC50 for cells with wildtype EGFR (Mut/WT) (EGFR N771dupN G724S) | ratio of IC50 for cells with mutant EGFR to IC50 for cells with wildtype EGFR (Mut/WT) (EGFR Ex19del T790M L718V) | ratio of IC50 for cells with mutant EGFR to IC50 for cells with wildtype EGFR (Mut/WT) (EGFR L861Q) | ratio of the IC50 value for cells with a PACC EGFR mutation to the IC50 value for cells with wildtype EGFR (EGFR S768I/V769L) | ratio of the IC50 value for cells with a PACC EGFR mutation to the IC50 value for cells with wildtype EGFR (EGFR E709A) | ratio of the IC50 value for cells with a PACC EGFR mutation to the IC50 value for cells with wildtype EGFR (EGFR S768I) | ratio of IC50 for cells with mutant EGFR to IC50 for cells with wildtype EGFR (Mut/WT) (EGFR G719A T790M) | ratio of the IC50 value for cells with a PACC EGFR mutation to the IC50 value for cells with wildtype EGFR (EGFR L858R L718Q) | ratio of the IC50 value for cells with a PACC EGFR mutation to the IC50 value for cells with wildtype EGFR (EGFR V774M) | ratio of IC50 for cells with mutant EGFR to IC50 for cells with wildtype EGFR (Mut/WT) (EGFR L858R/T790M) | ratio of the IC50 value for cells with a PACC EGFR mutation to the IC50 value for cells with wildtype EGFR (EGFR L747P) | ratio of IC50 for cells with mutant EGFR to IC50 for cells with wildtype EGFR (Mut/WT) (EGFR L858R T790M L792H) | ratio of IC50 for cells with mutant EGFR to IC50 for cells with wildtype EGFR (Mut/WT) (EGFR S784F) | ratio of the IC50 value for cells with a PACC EGFR mutation to the IC50 value for cells with wildtype EGFR (EGFR V769L) | ratio of the IC50 value for cells with a PACC EGFR mutation to the IC50 value for cells with wildtype EGFR (EGFR S768I V774M) | ratio of the IC50 value for cells with a PACC EGFR mutation to the IC50 value for cells with wildtype EGFR (EGFR I740dupIPVAK) | ratio of IC50 for cells with mutant EGFR to IC50 for cells with wildtype EGFR (Mut/WT) (EGFR G719S T790M) | ratio of IC50 for cells with mutant EGFR to IC50 for cells with wildtype EGFR (Mut/WT) (EGFR S768I/T790M) | ratio of IC50 for cells with mutant EGFR to IC50 for cells with wildtype EGFR (Mut/WT) (EGFR S811F) | further results
C=CC(=O)Nc1cc(Nc2ncc(C(=O)OC(C)C)c(-c3cn(C)c4ccccc34)n2)c(OC)cc1N(C)CCN(C)C [TAK-788 (mobocertinib), mobocertinib] | 1.298 | 1.553 | 3.032 | 0.8467 | 0.04994 | 1.583 | 0.7766 | 0.4864 | 2.996 | 1.453 | 0.7565 | 5.991 | 3.326 | 0.01487 | 3.454 | 1.227 | 7.185 | 1.302 | 10.82 | 0.003195 | ratio of the IC50 value for cells with a PACC EGFR mutation to the IC50 value for cells with wildtype EGFR (EGFR Ex19del L718Q): 1.286; ratio of the IC50 value for cells with a PACC EGFR mutation to the IC50 value for cells with wildtype EGFR (EGFR R776C): 0.04235; ratio of IC50 for cells with mutant EGFR to IC50 for cells with wildtype EGFR (Mut/WT) (EGFR T790M): 1.315; ratio of IC50 for cells with mutant EGFR to IC50 for cells with wildtype EGFR (Mut/WT) (EGFR N771dupN): 0.8508; ratio of IC50 for cells with mutant EGFR to IC50 for cells with wildtype EGFR (Mut/WT) (EGFR Ex19del/T790M/L792H): 0.885; ratio of the IC50 value for cells with a PACC EGFR mutation to the IC50 value for cells with wildtype EGFR (EGFR G724S): 108.6; ratio of the IC50 value for cells with a PACC EGFR mutation to the IC50 value for cells with wildtype EGFR (EGFR L858R/L718V): 3.491
C=CC(=O)N[C@H]1C=C(C)c2c(-c3cnc4ccccc4c3)c3c(N)ncnc3n2C1 [TAS 6417] | 0.03472 | 0.05113 | 0.002884 | 0.02761 | 0.004702 | 0.3054 | 0.0846 | 0.01296 | 0.0157 | 0.3282 | 0.01963 | 0.1949 | 9.536E−05 | 0.01015 | 0.159 | 0.3996 | 0.3555 | 0.032 | 0.1153 | 0.009026 | ratio of the IC50 value for cells with a PACC EGFR mutation to the IC50 value for cells with wildtype EGFR (EGFR Ex19del L718Q): 2.333; ratio of the IC50 value for cells with a PACC EGFR mutation to the IC50 value for cells with wildtype EGFR (EGFR R776C): 0.1072; ratio of IC50 for cells with mutant EGFR to IC50 for cells with wildtype EGFR (Mut/WT) (EGFR T790M): 0.6671; ratio of IC50 for cells with mutant EGFR to IC50 for cells with wildtype EGFR (Mut/WT) (EGFR N771dupN): 0.05134; ratio of IC50 for cells with mutant EGFR to IC50 for cells with wildtype EGFR (Mut/WT) (EGFR Ex19del/T790M/L792H): 0.0002637; ratio of the IC50 value for cells with a PACC EGFR mutation to the IC50 value for cells with wildtype EGFR (EGFR G724S): 3.055; ratio of the IC50 value for cells with a PACC EGFR mutation to the IC50 value for cells with wildtype EGFR (EGFR L858R/L718V): 0.01509
